Test results published in US11976083B2, “Inhibitors of peptidylarginine deiminases” (Gilead Sciences, Inc., priority 2020, dated 2024).

target: T1, human PAD4 (Homo sapiens, UniProt Q9UM07); assay: In vitro PAD4 BAEE biochemical assay; conditions: BAEE substrate 3 mM, 5 nM PAD4, 2 mM calcium chloride; geometric mean of multiple experiments
T1 construct: human PAD4 (NM_012387), A2-P663, was PCR amplified; His-SUMO (N, cleaved yes); made in house; host or cells: E. coli BL21(DE3)
Summary of the method: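 Fluorescence read-out (ex 405/em 535 nm) of isoindole formed from ammonia, o-phthalaldehyde and DTT after EDTA stop. Reaction: 5 nM PAD4, 2 mM CaCl2, 3 mM BAEE, 2 h, 25 °C, after 30 min enzyme–compound preincubation. Normalised to BB-Cl-Amidine (50 µM) and DMSO controls.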

T1 sequence (Q9UM07 2-663): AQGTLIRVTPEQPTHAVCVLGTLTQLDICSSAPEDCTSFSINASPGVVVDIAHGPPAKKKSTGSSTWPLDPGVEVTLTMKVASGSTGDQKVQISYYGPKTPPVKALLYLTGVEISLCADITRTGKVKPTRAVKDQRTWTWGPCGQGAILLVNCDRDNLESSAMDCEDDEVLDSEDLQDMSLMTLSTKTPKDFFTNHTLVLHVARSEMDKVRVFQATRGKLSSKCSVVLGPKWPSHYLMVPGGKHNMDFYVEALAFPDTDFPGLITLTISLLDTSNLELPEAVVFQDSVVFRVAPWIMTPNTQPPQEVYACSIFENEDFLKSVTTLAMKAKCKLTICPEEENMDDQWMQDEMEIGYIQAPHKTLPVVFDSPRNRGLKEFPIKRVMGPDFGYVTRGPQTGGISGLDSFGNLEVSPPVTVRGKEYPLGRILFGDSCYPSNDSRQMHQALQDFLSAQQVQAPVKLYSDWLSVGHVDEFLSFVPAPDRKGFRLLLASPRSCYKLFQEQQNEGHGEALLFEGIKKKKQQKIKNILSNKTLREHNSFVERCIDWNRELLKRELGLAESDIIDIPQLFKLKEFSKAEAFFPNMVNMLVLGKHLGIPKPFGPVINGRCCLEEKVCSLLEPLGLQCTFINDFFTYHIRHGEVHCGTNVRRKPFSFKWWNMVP

SMILES | IC50 [nM]
Cc1cncc2c1C(=O)N[C@H](C)c1ccc3cc(-c4nc5cc(C(=O)N[C@H]6CNCC[C@@H]6F)c(F)cc5n4C4CC4)n(c3n1)CCCCC2 [Example 395, 1-cyclopropyl-2-[(2~{R})-2,6-dimethyl-4-oxo-3,8,16,22-tetrazatetracyclo[14.5.2.0^{5,10}.0^{19,23}]tricosa-1(22),5(10),6,8,17,19(23),20-heptaen-17-yl]-6-fluoro-~{N}-[(3~{S},4~{S})-4-fluoro-3-piperidyl]benzimidazole-5-carboxamide] | 29
COc1cc(C(=O)N2CC[C@@H](OC)[C@@H](N)C2)cc2nc(-c3cc4ccc5nc4n3CCCCCc3nc4ccccc4nc3C(=O)N[C@@H]5C)n(C)c12 [Example 414, (2~{R})-21-[5-[(3~{S},4~{R})-3-amino-4-methoxy-piperidine-1-carbonyl]-7-methoxy-1-methyl-benzimidazol-2-yl]-2-methyl-3,6,13,20,26-pentazapentacyclo[18.5.2.0^{5,14).0^{7, 12}.0^{23,27}]heptacosa-1(26),5(14),6,8,10,12,21,23(27),24-nonaen-4-one] | 125
COc1cc(C(=O)N2CCC[C@@H](N)C2)cc2nc(-c3cc4ccc5nc4n3CCCCC[C@@H](OC)C(C)(C)C(=O)N[C@@H]5C)n(C)c12 [Example 153, (7~{R},11~{R})-17-[5-[(3~{R})-3-aminopiperidine-1-carbonyl]-7-methoxy-1-methyl-benzimidazol-2-yl]-7-methoxy-8,8,11-trimethyl-1,10,19-triazatricyclo[10.5.2.0^{15,18}]nonadeca-12(19),13,15(18),16-tetraen-9-one] | 116
COc1cc(C(=O)N2CC[C@@H](OC(F)F)[C@@H](N)C2)cc2nc(-c3cc4ccc5nc4n3CCCCCc3nccnc3C(=O)N[C@@H]5C)n(C3CC3)c12 [Example 612, (2~{R})-17-[5-[(3~{S),4~{R})-3-amino-4-(difluoromethoxy)piperidine-1-carbonyl]-1-cyclopropyl-7-methoxy-benzimidazol-2-yl]-2-methyl-3,6,9,16,22-pentazatetracyclo [14.5.2.0^{5,10}.0^{19, 23}]tricosa-1(21),5(10), 6,8,17,19,22-heptaen-4-one] | 157
COc1cc(C(=O)N2C[C@H](N)[C@H](OC)[C@@H](F)C2)cc2nc(-c3cc4ccc5nc4n3CC(F)(F)CCC[C@@H]3C[C@H]3C(=O)N[C@@H]5C)n(C)c12 [Example 681, (2~{R},5~{R},7~{R})-14-[5-[(3~{S},4~{S}, 5~{S})-3-amino-5-fluoro-4-methoxy-piperidine-1-carbonyl]-7-methoxy-1-methyl-benzimidazol-2-yl]-11,11-difluoro-2-methyl-3,13,19-triazatetracyclo [11.5.2.0^{5,7}.0^{16,20}] icosa-1(19),14,16(20), 17-tetraen-4-one] | 39
COc1cc(C(=O)N2C[C@H](N)[C@@H]3CC[C@H]2C3)cc2nc(-c3cc4ccc5nc4n3CCCCC[C@H]3[C@H](C(=O)N[C@@H]5C)C3(F)F)n(C3CC3)c12 [Example 930, (2~{R},5~{R},7~{S})-14-[5-[(1~{S},4~{R},5~{R})-4-amino-2-azabicyclo[3.2.1]octane-2-carbonyl]-1-cyclopropyl-7-methoxy-benzimidazol-2-yl]-6,6-difluoro-2-methyl-3,13,19-triazatetracyclo[11.5.2.0^ {5,7}.0^{16,20}]icosa-1(19), 14,16(20),17-tetraen-4-one] | 22
COc1cc(C(=O)N[C@H]2CNCC[C@@H]2F)cc2nc(-c3cc4ccc5nc4n3CCCCCC[C@H](OC)C(=O)N[C@@H]5C)n(C)c12 [Example 615, ˜{N}-[(3˜{S},4˜{S})-4-fluoro-3-piperidyl]-7-methoxy-2-[(8˜{S},11˜{R})-8-methoxy-11-methyl-9-oxo-1,10,19-triazatricyclo[10.5.2.0^{15,18}]nonadeca-12(19),13,15(18),16-tetraen-17-yl]-1-methyl-benzimidazole-5-carboxamide] | 94
COc1cc(C(=O)N[C@H]2CNC[C@H]3C[C@H]32)cc2nc(-c3cc4ccc5nc4n3CCCCCCC(C)(C)C(=O)N[C@@H]5C)n(C)c12 [Example 203, ~{N}-[(1~{S},5~{R},6~{R})-3-azabicyclo[4.1.0]heptan-5-yl]-7-methoxy-1-methyl-2-[(11~{R})-8,8,11-trimethyl-9-oxo-1,10,19-triazatricyclo[10.5.2.0^{15,18}]nonadeca-12(19),13,15(18),16-tetraen-17-yl]benzimidazole-5-carboxamide] | 114

Second part, the compound after the results:

IC50 [nM] | SMILES
48 | COc1cc(C(=O)N2C[C@H]3CC[C@@H]2[C@@H]3N)cc2nc(-c3cc4ccc5nc4n3CC(F)(F)CCC[C@@H]3C[C@H]3C(=O)N[C@@H]5C)n(C)c12 [Example 853, (2~{R},5~{R},7~{R})-14-[5-[(1~{R},4~{R},7~{R})-7-amino-2-azabicyclo[2.2.1]heptane-2-carbonyl]-7-methoxy-1-methyl-benzimidazol-2-yl]-11,11-difluoro-2-methyl-3,13,19-triazatetracyclo[11.5.2.0^ {5,7}.0^{16,20}]icosa-1(19), 14,16(20),17-tetraen-4-one]
231 | C[C@H]1NC(=O)[C@](F)(c2cccc(Cl)n2)CCCCCCn2c(-c3nc4cc(C(=O)N5C[C@H](N)[C@@H]6CC[C@H]5C6)cc(F)c4n3C3CC3)cc3ccc1nc32 [Example 481, (8~{R},11~{R})-17-[5-[(1~{S},4~{R},5~{R})-4-amino-2-azabicyclo[3.2.1]octane-2-carbonyl]-1-cyclopropyl-7-fluoro-benzimidazol-2-yl]-8-(6-chloro-2-pyridyl)-8-fluoro-11-methyl-1,10,19-triazatricyclo[10.5.2.0^{15,18}]nonadeca-12(19),13,15(18),16-tetraen-9-one]
10 | COc1cc(C(=O)N2C[C@H](N)[C@@H]3CC[C@H]2C3)cc2nc(-c3cc4ccc5nc4n3CCCCCc3nc(C(F)F)ccc3C(=O)N[C@@H]5C)n(C3CC3)c12 [Example 819, (2~{R})-17-[5-[(1~{S},4~{R}, 5~{R})-4-amino-2-azabicyclo [3.2.1]octane-2-carbonyl]-1-cyclopropyl-7-methoxy-benzimidazol-2-yl]-8-(difluoromethyl)-2-methyl-3,9,16,22-tetrazatetracyclo[14.5.2.0^ {5,10}.0^{19,23}] tricosa-1(21),5(10),6,8,17, 19,22-heptaen-4-one]
21 | COc1cc(C(=O)N2[C@H]3CC[C@@H]2[C@H](N)C3)cc2nc(-c3cc4ccc5nc4n3CCCCCCCCC(=O)N3CCC[C@H]53)n(C)c12 [Example 130, (2~{R})-17-[5-[(1~{R},2~{R},4~{S})-2-amino-7-azabicyclo[2.2.1]heptane-7-carbonyl]-7-methoxy-1-methyl-benzimidazol-2-yl]-6,16,22-triazatetracyclo[14.5.2.0^{2,6}.0^{19,23}] tricosa-1(22),17,19(23),20-tetraen-7-one]
20 | COc1cc(C(=O)N2[C@H]3CC[C@@H]2[C@H](N)C3)cc2nc(-c3cc4ccc5cc4n3CCCCCCCC(=O)N[C@@H]5C)n(C)c12 [Example 215, (11˜{R})-17-[5-[(1˜{R},2˜{R},4˜{S})-2-amino-7-azabicyclo[2.2.1]heptane-7-carbonyl]-7-methoxy-1-methyl-benzimidazol-2-yl]-11-methyl-1,10-diazatricyclo[10.5.2.0^{15,18}]nonadeca-12(19),13,15(18),16-tetraen-9-one]
40 | C[C@H]1NC(=O)c2ccc(Cl)nc2CCCCCn2c(-c3nc4cc(C(=O)N5C[C@H](N)[C@@H]6CC[C@H]5C6)cc(F)c4n3CC(F)F)cc3ccc1nc32 [Example 925, (2~{R})-17-[5-[(1~{S),4~{R},5~ {R})-4-amino-2-azabicyclo[3.2.1]octane-2-carbonyl]-1-(2,2-difluoroethyl)-7-fluoro-benzimidazol-2-yl]-8-chloro-2-methyl-3,9,16,22-tetrazatetracyclo[14.5.2.0^ {5,10}.0^{19,23}]tricosa-1(22),5(10),6,8,17,19(23),20-heptaen-4-one]
56 | COc1cc(C(=O)N2C[C@H](N)[C@@H]3CC[C@H]2C3)cc2nc(-c3cc4ccc5nc4n3CCCCCc3cc(C(F)F)ccc3C(=O)N[C@@H]5C)n(C)c12 [Example 896, (2~{R})-17-[5-[(1~{S),4~{R},5~ {R})-4-amino-2-azabicyclo [3.2.1]octane-2-carbonyl]-7-methoxy-1-methyl-benzimidazol-2-yl]-8-(difluoromethyl)-2-methyl-3,16,22-triazatetracyclo [14.5.2.0^{5,10}.0^{19,23}] tricosa-1(22),5(10),6,8,17,19(23), 20-heptaen-4-one]
64 | COc1cc(C(=O)N2C[C@H](N)CCN2C)cc2nc(-c3cc4ccc5nc4n3CCCCCc3ccccc3C(=O)N[C@@H]5C)n(C)c12 [Example 44, (2~{R})-17-[5-[(5~{R})-5-amino-2-methyl-hexahydropyridazine-1-carbonyl]-7-methoxy-1-methyl-benzimidazol-2-yl]-2-methyl-3,16,22-triazatetracyclo[14.5.2.0^{5,10}.0^{19,23}] tricosa-1(22),5,7,9,17,19(23),20-heptaen-4-one]
112 | COc1cc(C(=O)N2CCC[C@@H](N)C2)cc2nc(-c3cc4ccc5nc4n3CCCCCCNC(=O)c3ccccc3-5)n(C)c12 [Example 49, 17-[5-[(3~{R})-3-aminopiperidine-1-carbonyl]-7-methoxy-1-methyl-benzimidazol-2-yl]-9,16,22-triazatetracyclo[14.5.2.0^{2,7}.0^{19,23}] tricosa-1(22),2,4,6,17,19(23),20-heptaen-8-one]
74 | COc1cc(C(=O)N2[C@H]3CC[C@@H]2[C@H](N)C3)cc2nc(-c3cc4ccc5nc4n3CCCCN(C)C(=O)N[C@@H]5C)c(C)n12 [Example 209, (9˜{R})-15-[7-[(1˜{R},2˜{R},4˜{S})-2-amino-7-azabicyclo[2.2.1]heptane-7-carbonyl]-5-methoxy-3-methyl-imidazo[1,2-a]pyridin-2-yl]-6,9-dimethyl-1,6,8,17-tetrazatricyclo[8.5.2.0^{13,16}]heptadeca-10(17),11,13(16),14-tetraen-7-one]
